These compounds were tested against NSD2 [1-1365] (Homo sapiens (Human), UniProt O96028) (assay: LC-MS/MS-based NSD2 enzymatic assay (SAH production)). Details: NSD2 biochemical activity, class symbols; read-out: NSD2 IC50.
Type: biochemical
Protocol: LC-MS/MS-Based NSD2 Enzymatic Assay
This assay employed LC-MS/MS technology to monitor the SAH production from the NSD2 enzymatic reaction. The enzymatic reaction was performed in white proxiplate plus 384-well microplate (Perkin Elmer). The reaction mixture (10 μL) were composed of 8 nM NSD2 [1-1365], […] SAM (USB, 10601) and 400 nM nucleosome (purified from mouse liver) in reaction buffer (20 mM Tris-HCl, pH at 8.0, 0.01% Tween 20, 10 mM MgCl2, 50 mM NaCl, 1 mM DTT, 1 mM TCEP (pH7.5)). After 90 min incubation at room temperature, 3 μL quenching solution containing 2.5% TFA with 320 nM d4-SAH was added to stop the reaction.
For the inhibition assay, compound solutions were transferred into the wells by Mosquito™ (TTP LabTech). The inhibition assays were carried out by preincubating various concentrations of the inhibitor with 5 uL reaction mixture containing 16 nM NSD2 [1-1365] and 2 uM SAM (USB, 10601) in reaction buffer. After 20 min preincubation, 5 uL solution containing 800 nM nucleosome (purified from mouse liver) in reaction buffer was added to initiate the reaction. The reaction was stopped by 3 μL quenching solution containing 2.5% TFA with 320 nM d4-SAH after 90 min.
The SAH production from the enzymatic assays were monitored by LC-MS/MS on an API 4000 triple quadrupole mass spec with Turbolon Spray (Applied Biosystem) coupled with Prominenece UFLC(Shimazu). Liquid chromatography was performed on a Chromolith FastGradient HPLC column (RP-18e, 25-2 mm, from Merck) at a flow rate of 0.8 ml/min. The column was connected directly to the turbo ion electrospray operating in the positive-ion mode. Mobile phase A is 0.1% FA and 2% methanol in water and mobile phase B is 0.1% FA in ACN. Injection volume was 3 μl and the autosampler was kept at 4 degree. SAH and d4-SAH were simultaneously monitored. Data were acquired and processed by Analyst software.
To quantify the formed SAH, d4-SAH was added as internal standard (IS). A series of SAH (Sigma, A9384) solution at varying concentration (1-500 nM in reaction buffer) was mixed with quenching solution mentioned above. Then LC-MS/MS was carried out on API 4000 LC/MS/MS system to detect both SAH and d4-SAH. The plot of SAH peak area/IS peak area vs SAH concentration was used to generate the normalization factor of SAH. The SAH production from real enzymatic reaction was derived from the standard curve of SAH. The down-limit of our system for the detection of SAH is around 1-2 nM, and the linear range can reach up to 500 nM.

Chain of NSD2 [1-1365] (O96028 whole entry): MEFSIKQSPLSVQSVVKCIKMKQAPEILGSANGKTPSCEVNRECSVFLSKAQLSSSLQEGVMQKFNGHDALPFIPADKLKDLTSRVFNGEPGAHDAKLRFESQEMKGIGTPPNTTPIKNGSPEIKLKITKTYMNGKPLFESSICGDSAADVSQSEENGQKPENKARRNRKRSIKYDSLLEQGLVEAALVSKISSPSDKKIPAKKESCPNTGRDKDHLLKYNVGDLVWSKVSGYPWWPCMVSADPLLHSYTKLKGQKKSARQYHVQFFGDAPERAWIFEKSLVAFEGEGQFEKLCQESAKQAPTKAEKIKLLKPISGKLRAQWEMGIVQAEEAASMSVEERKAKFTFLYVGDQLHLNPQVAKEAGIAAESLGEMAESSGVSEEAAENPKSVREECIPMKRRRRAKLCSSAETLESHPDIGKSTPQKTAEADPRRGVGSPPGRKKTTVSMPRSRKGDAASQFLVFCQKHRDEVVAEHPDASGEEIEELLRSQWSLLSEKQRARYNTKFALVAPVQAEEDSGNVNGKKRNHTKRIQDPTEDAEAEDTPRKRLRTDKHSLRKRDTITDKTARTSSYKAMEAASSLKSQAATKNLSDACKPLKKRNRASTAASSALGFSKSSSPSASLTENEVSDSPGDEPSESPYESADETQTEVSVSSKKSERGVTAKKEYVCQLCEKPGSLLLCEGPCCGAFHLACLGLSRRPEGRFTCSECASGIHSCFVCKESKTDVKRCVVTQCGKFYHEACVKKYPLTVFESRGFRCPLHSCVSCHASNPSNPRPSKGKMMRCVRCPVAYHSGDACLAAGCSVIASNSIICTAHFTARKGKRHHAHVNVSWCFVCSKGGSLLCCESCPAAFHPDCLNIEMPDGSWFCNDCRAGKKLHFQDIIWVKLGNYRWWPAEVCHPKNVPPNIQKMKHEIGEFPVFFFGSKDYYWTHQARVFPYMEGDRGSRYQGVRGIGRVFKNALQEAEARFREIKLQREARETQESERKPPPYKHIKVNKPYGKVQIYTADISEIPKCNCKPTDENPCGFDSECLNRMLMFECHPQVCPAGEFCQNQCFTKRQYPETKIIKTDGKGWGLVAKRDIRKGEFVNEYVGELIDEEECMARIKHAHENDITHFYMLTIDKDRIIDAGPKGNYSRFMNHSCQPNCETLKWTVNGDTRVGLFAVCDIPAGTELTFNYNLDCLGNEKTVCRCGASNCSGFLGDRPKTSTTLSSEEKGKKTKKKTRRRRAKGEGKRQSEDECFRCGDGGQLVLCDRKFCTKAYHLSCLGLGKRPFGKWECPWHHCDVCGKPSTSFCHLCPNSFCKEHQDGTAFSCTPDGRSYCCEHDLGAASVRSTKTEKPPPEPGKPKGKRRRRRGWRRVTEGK

| IC50 [nM] | SMILES |
| --- | --- |
| 10 to 1000 | NC(=O)C[C@@]1(N)CCCN(c2cnc(-c3ccc(F)c(F)c3)cc2Cn2cnc3c(N)ncnc32)C1 [Example 62, (S)-2-(3-amino-1-(4-((6-amino-9H-purin-9-yl)methyl)-6-(3,4-difluorophenyl)pyridin-3-yl)piperidin-3-yl)acetamide] |
| 10 to 1000 | Nc1ncnc2c1ncn2Cc1c(N2CCC[C@](N)([C@H](O)C(F)F)C2)cnc(-c2ccc(F)cc2F)c1F [Example 142, (S)-1-((R)-3-amino-1-(4-((6-amino-9H-purin-9-yl)methyl)-6-(2,4-difluorophenyl)-5-fluoropyridin-3-yl)piperidin-3-yl)-2,2-difluoroethan-1-ol] |
| 10 to 1000 | Cn1ncc2cc(-c3cc(Cn4cnc5c(N)ncnc54)c(N4CCC[C@](N)([C@H](O)C(F)F)C4)cn3)c(F)cc21 [Example 143, (S)-1-((R)-3-amino-1-(4-((6-amino-9H-purin-9-yl)methyl)-6-(6-fluoro-1-methyl-1H-indazol-5-yl)pyridin-3-yl)piperidin-3-yl)-2,2-difluoroethan-1-ol] |
| 1 to 10 | COc1c(-c2ccc(F)c(F)c2)ncc(N2CCC[C@](N)([C@H](O)C(F)F)C2)c1Cn1cnc2c(N)ncnc21 [Example 118, (S)-1-((R)-3-amino-1-(4-((6-amino-9H-purin-9-yl)methyl)-6-(3,4-difluorophenyl)-5-methoxypyridin-3-yl)piperidin-3-yl)-2,2-difluoroethan-1-ol] |
| 1 to 10 | Nc1ncnc2c1ncn2Cc1cc(-c2ccc(F)c(F)c2)ncc1N1CCCC(N)(C(=O)C2CCCC2)C1 (centres unmarked) [Example 100, (3-amino-1-(4-((6-amino-9H-purin-9-yl)methyl)-6-(3,4-difluorophenyl)pyridin-3-yl)piperidin-3-yl)(cyclopentyl)methanone] |
| 10 to 1000 | COc1ccc(-c2cc(Cn3cnc4c(N)ncnc43)c(N3C[C@H](N)CC(F)(F)C3)cn2)cc1F [Example 16, (R)-9-((5-(5-amino-3,3-difluoropiperidin-1-yl)-2-(3-fluoro-4-methoxyphenyl)pyridin-4-yl)methyl)-9H-purin-6-amine] |
| 10 to 1000 | Cc1cc(C(F)F)ccc1-c1cc(Cn2cnc3c(N)ncnc32)c(N2CCC[C@](N)([C@H](O)C(F)F)C2)cn1 [Example 140, (S)-1-((R)-3-amino-1-(4-((6-amino-9H-purin-9-yl)methyl)-6-(4-(difluoromethyl)-2-methylphenyl)pyridin-3-yl)piperidin-3-yl)-2,2-difluoroethan-1-ol] |
| 1 to 10 | COc1ccc(-c2cc(Cn3cnc4c(N)ncnc43)c(N3CCC[C@](N)(COC4CC4)C3)cn2)cc1F [Example 31, (R)-9-((5-(3-amino-3-(cyclopropoxymethyl)piperidin-1-yl)-2-(3-fluoro-4-methoxyphenyl)pyridin-4-yl)methyl)-9H-purin-6-amine] |
| 10 to 1000 | COc1cc(F)c(-c2ncc(N3CCC[C@](N)([C@H](O)C(F)F)C3)c(Cn3cnc4c(N)ncnc43)c2F)cc1F [Example 149, (S)-1-((R)-3-amino-1-(4-((6-amino-9H-purin-9-yl)methyl)-6-(2,5-difluoro-4-methoxyphenyl)-5-fluoropyridin-3-yl)piperidin-3-yl)-2,2-difluoroethan-1-ol] |

Same assay, conditions: read-out: NSD2 IC50

| IC50 [nM] | SMILES |
| --- | --- |
| 10 to 1000 | CCn1ccc([C@@]2(N)CCCN(c3cnc(C4CC4)cc3Cn3cnc4c(N)nccc43)C2)n1 [Example 276, (R)-1-((5-(3-amino-3-(1-ethyl-1H-pyrazo1-3-yl)piperidin-1-yl)-2-cyclopropylpyridin-4-yl)methyl)-1H-imidazo[4,5-c]pyridin-4-amine] |
| 10 to 1000 | N#Cc1ccc(-c2cc(Cn3cnc4c(N)ncnc43)c(N3CCCC(N)(c4cccc(Cl)n4)C3)cn2)cc1F (centres unmarked) [Example 223] |
| 10 to 1000 | CCc1cncc([C@@]2(N)CCCN(c3cnc(-c4ccc(F)cc4)cc3Cn3cnc4c(N)ncnc43)C2)n1 [Example 250, (R)-9-((5-(3-amino-3-(6-ethylpyrazin-2-yl)piperidin-1-yl)-2-(4-fluorophenyl)pyridin-4-yl)methyl)-9H-purin-6-amine] |
| > 1000 | Nc1ncnc2c1ncn2Cc1cc(-c2ccc(F)c(F)c2)ncc1N1C[C@H](N)CCC1=O [Example 325, (R)-5-amino-1-(4-((6-amino-9H-purin-9-yl)methyl)-6-(3,4-difluorophenyl)pyridin-3-yl)piperidin-2-one] |
| 10 to 1000 | CCc1cncc([C@@]2(N)CCCN(c3cnc(-c4ccc(F)cc4)cc3Cn3cnc4c(N)nccc43)C2)n1 [Example 256, (R)-1-((5-(3-amino-3-(6-ethylpyrazin-2-yl)piperidin-1-yl)-2-(4-fluorophenyl)pyridin-4-yl)methyl)-1H-imidazo[4,5-c]pyridin-4-amine] |
| > 1000 | Nc1ncnc2c1ncn2Cc1cc(-c2ccc(F)c(F)c2)ncc1N1CCCC2(COCCN2)C1 (centres unmarked) [Example 321, 9-((2-(3,4-difluorophenyl)-5-(4-oxa-1,8-diazaspiro[5.5]undecan-8-yl)pyridin-4-yl)methyl)-9H-purin-6-amine] |
| 10 to 1000 | Nc1ncnc2c1ncn2Cc1cc(-c2ccc(F)c(F)c2)ncc1N1CCCC(N)(C(F)C(F)F)C1 (centres unmarked) [Example 300, 9-((5-(3-amino-3-(1,2,2-trifluoroethyl)piperidin-1-yl)-2-(3,4-difluorophenyl)pyridin-4-yl)methyl)-9H-purin-6-amine] |
| > 1000 | CS(=O)(=O)CC1(N)CCCN(c2cnc(-c3ccc(F)c(F)c3)cc2Cn2cnc3c(N)ncnc32)C1 (centres unmarked) [Example 298, 9-((5-(3-amino-3-((methylsulfonyl)methyl)piperidin-1-yl)-2-(3,4-difluorophenyl)pyridin-4-yl)methyl)-9H-purin-6-amine] |
| > 1000 | NC(=O)C[C@@H]1[C@H](N)CCCN1c1cnc(-c2ccc(F)c(F)c2)cc1Cn1cnc2c(N)ncnc21 [Example 320, 2-((2R,3R)-3-amino-1-(4-((6-amino-9H-purin-9-yl)methyl)-6-(3,4-difluorophenyl)pyridin-3-yl)piperidin-2-yl)acetamide] |
| > 1000 | NC(=O)[C@@H]1[C@H](N)CCCN1c1cnc(-c2ccc(F)c(F)c2)cc1Cn1cnc2c(N)ncnc21 [Example 318, (2S,3R)-3-amino-1-(4-((6-amino-9H-purin-9-yl)methyl)-6-(3,4-difluorophenyl)pyridin-3-yl)piperidine-2-carboxamide] |
| 10 to 1000 | Nc1ncnc2c1ncn2Cc1cc(-c2ccc(F)c(F)c2)ncc1N1CCC(O)C(N)(CC(F)F)C1 (centres unmarked) [Example 301, 3-amino-1-(4-((6-amino-9H-purin-9-yl)methyl)-6-(3,4-difluorophenyl)pyridin-3-yl)-3-(2,2-difluoroethyl)piperidin-4-ol] |
| > 1000 | Nc1ncnc2c1ncn2Cc1cc(-c2ccc(F)c(F)c2)ncc1N1CCC[C@@H](N)[C@H]1C(=O)O [Example 319] |

The remaining lines, values behind:

| SMILES | IC50 [nM] |
| --- | --- |
| Nc1ncnc2c1ncn2Cc1cc(-c2ccc3c(c2)CCO3)ncc1N1CCC[C@](N)(c2cccc(Cl)n2)C1 [Example 185, (R)-9-((5-(3-amino-3-(6-chloropyridin-2-yl)piperidin-1-yl)-2-(2,3-dihydrobenzofuran-5-yl)pyridin-4-yl)methyl)-9H-purin-6-amine] | 10 to 1000 |
| Nc1ncnc2c1ncn2Cc1cc(-c2ccc3ccnn3c2)ncc1N1CCCC(N)(c2cccc(Cl)n2)C1 (centres unmarked) [Example 222, 9-((5-(3-amino-3-(6-chloropyridin-2-yl)piperidin-1-yl)-2-(pyrazolo[1,5-a]pyridin-6-yl)pyridin-4-yl)methyl)-9H-purin-6-amine] | 10 to 1000 |
| Nc1ncnc2c1ncn2Cc1cc(C2CC2)ncc1N1CCC[C@](N)(c2cccc(Cl)n2)C1 [Example 204, (R)-9-((5-(3-amino-3-(6-chloropyridin-2-yl)piperidin-1-yl)-2-cyclopropylpyridin-4-yl)methyl)-9H-purin-6-amine] | 10 to 1000 |
| CC(O)c1ccc([C@@]2(N)CCCN(c3cnc(-c4ccc(F)c(F)c4)cc3Cn3cnc4c(N)ncnc43)C2)nc1F (stereo partly drawn) [Example 215, 1-(6-((R)-3-amino-1-(4-((6-amino-9H-purin-9-yl)methyl)-6-(3,4-difluorophenyl)pyridin-3-yl)piperidin-3-yl)-2-fluoropyridin-3-yl)ethan-1-ol] | 10 to 1000 |
| Nc1ncnc2c1ncn2Cc1cc(-c2ccc3nccn3c2)ncc1N1CCCC(N)(c2cccc(Cl)n2)C1 (centres unmarked) [Example 210, 9-((5-(3-amino-3-(6-chloropyridin-2-yl)piperidin-1-yl)-2-(imidazo[1,2-a]pyridin-6-yl)pyridin-4-yl)methyl)-9H-purin-6-amine] | 10 to 1000 |

— patent US11420970B1 (NOVARTIS AG, priority 2019, dated 2022)
